For this experiment, the target named is hemoglobin (Homo sapiens, UniProt P68871+P69905). The experiment can be described thus: hemoglobin-oxygen equilibrium curves (P50 value, oxygen saturation fraction). It counts as biochemical. The settings on record: for effect in combination with 2,3-BPG on hemoglobin modulation: FIG. 2. An excerpt: The oxygen affinity of hemoglobin was represented by P50 value. The P50 value was the required partial pressure of oxygen to achieve 50% oxygen saturation.

Setting [1] is: PO2 20 mmHg, 2,3-BPG 1.2 mM, alone or after treating with a phthalide compound (FIG. 7).

Each structure is given as a SMILES string.

hemoglobin, sequence (P69905 2-142 limits assumed): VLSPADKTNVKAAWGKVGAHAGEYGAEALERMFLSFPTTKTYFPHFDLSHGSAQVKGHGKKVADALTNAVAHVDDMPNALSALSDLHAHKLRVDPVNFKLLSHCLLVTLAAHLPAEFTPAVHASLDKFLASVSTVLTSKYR
hemoglobin, sequence (P68871 2-147 limits assumed): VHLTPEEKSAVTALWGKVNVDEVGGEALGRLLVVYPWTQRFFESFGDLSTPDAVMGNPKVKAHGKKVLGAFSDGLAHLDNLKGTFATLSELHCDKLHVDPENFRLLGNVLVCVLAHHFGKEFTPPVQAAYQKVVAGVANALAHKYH

Take `O=C(O)C(COP(=O)(O)O)OP(=O)(O)O` (centres unmarked) [2,3-BPG, 2,3-bisphosphorglycerate]: under setting [1], the oxygen release efficiency is 40% and the “oxygen saturation level / fraction of hemoglobin” value is “about 60%”. Further, the “P50 value of hemoglobin” value (about 4 mM 2,3-BPG, no phthalide compound) was 18.8 mmHg. In addition, the “oxygen release efficiency of hemoglobin” value (oxygen partial pressure 20 mmHg, 12 mM 2,3-BPG, hemoglobin without 2,3-BPG 20%) amounted to 65%. Further, for the setting “oxygen partial pressure 20 mmHg, 12 mM 2,3-BPG, hemoglobin without 2,3-BPG about 80%”, the “oxygen saturation fraction of hemoglobin” value is on record as around 35%. In addition, for the setting “without or after administration of phthalide compounds (FIG. 6)”, the “2,3-BPG required for hemoglobin to reach a P50 value of 18.8 mmHg (approximately the same or higher)” value is “about 4 mM”.
Turning to `CCC/C=C1\OC(=O)C2=C1CC[C@@H](O)[C@@H]2O` [Senkyunolide I, senkyunolide I], the “effect in combination with 2,3-BPG on hemoglobin modulation” value was “synergistic effect”.
Turning to `CCC/C=C1\OC(=O)C2=C1CCC=C2` [Z-Ligustilide, Z-ligustilide], the “effect in combination with 2,3-BPG on hemoglobin modulation” value is given as “synergistic effect”.

Values taken from patent publication US20170266154A1, “METHOD FOR TREATING ALZHEIMER'S DISEASE AND 2, 3-BIPHOSPHOGLYCERATE METABOLISM DISORDER INDUCED” (National Sun Yat-sen University, priority 2016, published 2017).
